For data set [1], the system named is HSV-1. The experiment in a line: Plaque formation assay of extracellular HSV-1 particles. Particulars: supernatant in plaque formation assay. The format is cell-based, herpes simplex virus type 1. The method, then:
(§1) (A) Amino acid sequence of Protopolybia-MP III. Basic residues are labeled blue, and acidic residues are labeled red. (B,C) Suppression of intracellular HSV-1 infection by Protopolybia-MP III. Cells were preincubated with Protopolybia-MP III at different concentrations or PBS for 1 h and then infected with HSV-1 at a multiplicity of infection (MOI) of 1. After 24 h, the cells were collected. Intracellular HSV-1 RNA was analyzed by qPCR (B), and intracellular HSV-1 ICP0 protein levels were analyzed by Western blotting (C). (D) Suppression of Protopolybia-MP III on extracellular HSV-1 particles. Cells were treated with Protopolybia-MP III at different concentrations or PBS for 24 h, and then the supernatant was collected and evaluated in a plaque formation assay. (E) Cytotoxicity of Protopolybia-MP III to Vero cells. Cells were treated with Protopolybia-MP III or PBS at different concentrations for 24 h, and then the cytotoxicity was determined by CCK8 assay. * p < 0.05. ** p < 0.01. *** p < 0.001.
(§2) Figure 2 Protopolybia-MP III inhibits HSV-1 replication in human cell lines. (A) Cytotoxicities of Protopolybia-MP III to A549 cells, HCEC, and SK-N-MC. Cells were treated with Protopolybia-MP III at different concentrations or PBS for 24 h, and then cytotoxicities were determined by the CCK8 assay. (B,C) Suppression of intracellular HSV-1 infection by Protopolybia-MP III in A549 cells, HCEC, and SK-N-MC. Cells were preincubated with Protopolybia-MP III at different concentrations or PBS for 1 h and then infected with HSV-1 at an MOI of 1. After 24 h, the cells were collected. Intracellular HSV-1 RNA was analyzed by qPCR (B), and intracellular HSV-1 ICP0 protein expression levels were analyzed by Western blotting (C). (D) Inhibition of Protopolybia-MP III on extracellular HSV-1 particles in A549 cells, HCEC, and SK-N-MC. Cells were treated with Protopolybia-MP III at different concentrations or PBS for 24 h, and then the supernatant was collected and evaluated in a plaque formation assay. * p < 0.05. ** p < 0.01. *** p < 0.001.
Vero cells seeded in a 24-well plate at 100% confluence were infected with virus diluent or supernatant. After 1 h of absorption at 37 °C, the supernatant was removed. Cells were washed three times with PBS and replenished with a plaque-covering layer (MEM with 2% FBS and 1.5% carboxymethylcellulose). After an incubation period of approximately 3 days, the cells were stained with 1% crystal violet containing 10% methanol for 0.5 h. Then, the plaques were counted, and the viral titer was calculated according to the plaque number and dilution.

Data set [2] deals with Vero cells. The experiment in a line: CCK8 cytotoxicity assay, Vero cells. Conditions: 40 μg/mL, 24 h. The data set is classed as cell-based, monkey. The method, then: as §1
(§3) Cells were seeded in a 96-well plate (7000–10,000 cells per well) and cultured at 37 °C overnight. Peptides in a series of concentrations were added to the medium, and cells were then incubated at 37 °C for 24 h. […] Finally, the absorbance was measured at 450 nm using a microplate reader (BioTek, Winooski, VT, USA).
A general note: Tetrazolium dyes change colour on reduction, which living cells bring about.

Data set [3] deals with human corneal epithelial cells (HCEC). In words: CCK8 cytotoxicity assay, HCEC. The format is cell-based. Conditions: 40 μg/mL, 24 h. The method, then:
as §2, §3

Ends that are not written are not given here.

On to “INWLKLGKAVIDAL-NH2 [Protopolybia-MP III]”, for which the “extracellular HSV-1 level versus PBS” value in data set [1] (A549 cells treated 24 h), in data set [1] (HCEC treated 24 h) and in data set [1] (SK-N-MC treated 24 h) was “lower” in each case. In data set [1] (Vero cells treated 24 h), the “extracellular HSV-1 particles (plaques)” value is given as “fewer plaques”. The “cytotoxicity to Vero cells” value in data set [2] is given as “almost nontoxic”. The “cytotoxicity to HCEC” value in data set [3] is listed as “almost nontoxic”.

(Values after PMC10976043, “Function and Mechanism of Antiviral Wasp Venom Peptide Protopolybia-MP III and Its Derivatives against HSV-1” (Toxins, 2024).)
